Experimental findings from patent US20050191693A1, “Methods and cell populations for identifying and validating genomic targets, and for drug screening” (priority 2001, published 2005) are described below.

Where two headings read alike, the source gives them in different places.

One series deals with CT-1 promoter. The experiment in a line: CT1-promoter luciferase reporter activity in ES cell-derived cardiomyocytes. Format: cell-based, mouse. The following applies: 0.1 μM, incubation for 4h, corrected for total protein. (In general: In a reporter assay the amount or activity of a reporter protein is the signal.)
In series [1] the test system is ES-cell derived cardiomyocytes. The series is described as follows: Beating frequency of ES cell-derived cardiomyocytes (contractions counted manually during 15 sec). It is filed as cell-based, mouse. To be noted: cardiomyocytes 25 days after start of differentiation. The method, then:
Gated cardiomyocytes where cultivated in 6 cm tissue culture dishes. Fresh medium was supplemented with the test compound in concentrations ranging from 0.01-10 μM. For heat shock treatment the cells where incubated at 42° C. for 30 min. Mock treated cells served as control. Effects on the cardiomyocyte beating rate where recorded by manually counting the number of contractions during 15 sec. Beating rates have been recorded before addition of substances and 15 min and 4h after addition. After 4h of incubation the cells where washed with PBS, collected in reporter lysis buffer (RLB, Promega) and stored at −80° C.
Effects of noradrenaline are mediated via alpha and beta-adrenergic receptors, while isoproterenol effects are mediated specific via β-adrenergic receptors. Since β1 receptors play a pivotal role in mediating the beating rate, we analyzed changes in beating frequency of cardiomyocytes as a first indication of a response towards the tested compounds. The beating rate of a individual cluster per plate has been recorded before, 15 min after application of the stimulus and after 4h incubation. FIG. 3 summarizes the data of such an analysis using cardiomyocytes 25 days after start of differentiation. […] Due to the low starting beating frequency in some cases the x-fold increase is quite high. Nevertheless these elevated beating frequencies where still in the physiological range. […]

Series [2] has as its system cardiomyocyte nuclei in the ventricular septum. More on the design: species or system mice. The following applies: mouse, in vivo, 7 days. The method, then:
Cryosections (10 μm) were generated using standard histologic techniques. For ISEL analysis, cryosections were processed using the Oncogene Research KLENOW-FragEL DNA Fragmentation Detection Kit. Signal was developed with biotinylated nucleotides and horseradish peroxidase (HRP) conjugated streptavidin (Roche Molecular Biochemicals). Signal was generated by incubation with diaminobenzidine using standard techniques. Beta-galactosidase activity was detected in the same sections via X-GAL staining as described (Soonpaa M. H. et al. (1994) Science 264: 98-101).
Isoproterenol is a beta-adrenergic agonist that induces cardiomyocyte hypertrophy both in vitro and in vivo. Prolonged exposure to isoproterenol is cardiotoxic, inducing cardiomyocyte apoptosis via a mechanism similar to that encountered during the progression of heart failure. The MHC-1152stp mice were tested to determine if transgene expression was cardioprotective during isoproterenol infusion, and specifically to see if 1152stp expression could antagonize isoproterenol-induced cardiomyocyte apoptosis. […]
Mice with a MHC-1152stp/MHC-nLAC genotype and a (−)/MHC-nLAC genotype were culled, and at 12 weeks of age were implanted with isoproterenol-filled osmotic mini-pumps, as described in several studies from our group (Soonpaa M. H. and Field L. J. (1994) American Journal of Physiology 266 (Heart and Circulatory Physiology 35): H1439-1445; Pasumarthi K. B., Nakajima H., Nakajima H. O., Jing S., Field L. J. (2000) Circ Res. 86: 1069-1077). […] Cardiomyocyte apoptosis was then calculated simply by determining the incidence of black HRP signal over blue nuclear staining; these analyses focused on cardiomyocytes residing in the ventricular septum, where the cardiotoxic effects of isoproterenol appear to be most pronounced. […]

Where [3] appears, read: MHC-nLAC transgenic ((−)/MHC-nLAC genotype).

Protocol for CT-1 promoter: Gated cardiomyocytes where cultivated in 6 cm tissue culture dishes. Fresh medium was supplemented with the test compound in concentrations ranging from 0.01-10 μM. For heat shock treatment the cells where incubated at 42° C. for 30 min. Mock treated cells served as control. […] After 4h of incubation the cells where washed with PBS, collected in reporter lysis buffer (RLB, Promega) and stored at −80° C. The Luciferase-activity in the thawed lysates was measured by flash-light Luciferase assay (Promega). In order to quantify Luciferase-activity a serial diluted recombinant Luciferase standard was analyzed in parallel. Values for Luciferase-activity where correct for the amount of total protein in the lysates measured by BCA-assay (Pierce). The transcriptional activity of the CT1-promoter was analyzed by measurement of Luciferase activity in the cellular lysates.

On to `CN(C)CCCN1c2ccccc2CCc2ccccc21` [imipramine], for which the “increase of CT1-promoter activity (Luciferase activity) compared to the untreated control” value in the series on CT-1 promoter is listed as “more than 2 fold”. Moreover, the “change in beating frequency” value in series [1] (0.1 μM) was “increase in beating frequencies”.

As for `CC(C)NCC(O)c1ccc(O)c(O)c1` (stereo not shown) [isoproterenol], the “% ISEL Positive” value in series [2] ((−)/MHC-nLAC transgenic) is about 0.1%. In series [2] (setting [3]), the “% ISEL Positive” value was 0.098% and the “ISEL Positive CM Nuclei” value is given as 35 of 35604.

Take `NC[C@H](O)c1ccc(O)c(O)c1` [noradrenaline]: the “increase of CT1-promoter activity (Luciferase activity) compared to the untreated control” value with CT-1 promoter turned out to be 1.73 fold. The “change in beating frequency” value in series [1] (recorded before, 15 min and 4h after application, 0.01-10 μM) is given as “dose dependent increase”.
